Laboratory results as given in PubChem BioAssay (NCI).
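Test compounds were applied to cells in 96-well plates for 48 hours at 5 doses. The concentration for 50% growth inhibition is given as GI50. Definition used: TGI = concentration required for complete inhibition of growth.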

Tests used:
Test in all cases: NCI tumour cell line growth inhibition, 48 h
[1] = tested on: OVCAR-8 ovarian
[2] = tested on: HCT-116 colon
[3] = tested on: NCI-H226 lung
[4] = tested on: MDA-MB-435
[5] = tested on: NCI-H522 lung
[6] = tested on: PC-3 prostate
[7] = tested on: T-47D breast
[8] = tested on: SF-268 CNS
[9] = tested on: SK-MEL-2 melanoma
[10] = tested on: HL-60(TB) leukemia
[11] = tested on: LOX IMVI melanoma
[12] = tested on: UACC-257 melanoma
[13] = tested on: A549 NSCLC
[14] = tested on: SF-295 CNS
[15] = tested on: MCF7 breast
[16] = tested on: TK-10 renal
[17] = tested on: UO-31 renal
[18] = tested on: RXF 393 renal
[19] = tested on: OVCAR-4 ovarian
[20] = tested on: CCRF-CEM leukemia
[21] = tested on: SK-OV-3 ovarian
[22] = tested on: SN12C renal
[23] = tested on: SF-539 CNS
[24] = tested on: M14 melanoma
[25] = tested on: NCI-H460 lung
[26] = tested on: A498 renal
[27] = tested on: CAKI-1 renal
[28] = tested on: SK-MEL-5 melanoma
[29] = tested on: MALME-3M melanoma
[30] = tested on: HCT-15 colon
[31] = tested on: EKVX NSCLC
[32] = tested on: SK-MEL-28 melanoma
[33] = tested on: UACC-62 melanoma
[34] = tested on: SNB-19 CNS
[35] = tested on: HT29 colon
[36] = tested on: SNB-75 CNS
[37] = tested on: HS 578T breast
[38] = tested on: DU-145 prostate
[39] = tested on: HOP-92 NSCLC
[40] = tested on: IGROV1 ovarian
[41] = tested on: COLO 205 colon
[42] = tested on: SW-620 colon
[43] = tested on: OVCAR-3 ovarian
[44] = tested on: HOP-62 NSCLC
[45] = tested on: 786-0 renal
[46] = tested on: MDA-MB-231 breast
[47] = tested on: ACHN renal
[48] = tested on: U251 CNS
[49] = tested on: BT-549 breast
[50] = tested on: KM12 colon

CCN(CCO)CCCC(C)Nc1ccnc2cc(Cl)ccc12 (stereo not given)
GI50 [1]: > 100 µM
TGI [1]: > 100 µM
GI50 [2]: > 100 µM
TGI [2]: > 100 µM
GI50 [3]: > 100 µM
TGI [3]: > 100 µM
GI50 [4]: > 100 µM
TGI [4]: > 100 µM
GI50 [5]: > 100 µM
TGI [5]: > 100 µM
GI50 [6]: > 100 µM
TGI [6]: > 100 µM
GI50 [7]: > 100 µM
TGI [7]: > 100 µM
GI50 [8]: > 100 µM
TGI [8]: > 100 µM
GI50 [9]: > 100 µM
TGI [9]: > 100 µM
GI50 [10]: 13.3 µM
TGI [10]: 47.6 µM
GI50 [11]: > 100 µM
TGI [11]: > 100 µM
GI50 [12]: > 100 µM
TGI [12]: > 100 µM
GI50 [13]: > 100 µM
TGI [13]: > 100 µM
GI50 [14]: > 100 µM
TGI [14]: > 100 µM
GI50 [15]: > 100 µM
TGI [15]: > 100 µM
GI50 [16]: > 100 µM
TGI [16]: > 100 µM
GI50 [17]: > 100 µM
TGI [17]: > 100 µM
GI50 [18]: 73.8 µM
TGI [18]: > 100 µM
GI50 [19]: > 100 µM
TGI [19]: > 100 µM
GI50 [20]: > 100 µM
TGI [20]: > 100 µM
GI50 [21]: > 100 µM
TGI [21]: > 100 µM
GI50 [22]: > 100 µM
TGI [22]: > 100 µM
GI50 [23]: 8.63 µM
TGI [23]: > 100 µM
GI50 [24]: > 100 µM
TGI [24]: > 100 µM
GI50 [25]: > 100 µM
TGI [25]: > 100 µM
GI50 [26]: > 100 µM
TGI [26]: > 100 µM
GI50 [27]: > 100 µM
TGI [27]: > 100 µM
GI50 [28]: > 100 µM
TGI [28]: > 100 µM
GI50 [29]: > 100 µM
TGI [29]: > 100 µM
GI50 [30]: > 100 µM
TGI [30]: > 100 µM
GI50 [31]: > 100 µM
TGI [31]: > 100 µM
GI50 [32]: > 100 µM
TGI [32]: > 100 µM
GI50 [33]: > 100 µM
TGI [33]: > 100 µM
GI50 [34]: > 100 µM
TGI [34]: > 100 µM
GI50 [35]: > 100 µM
TGI [35]: > 100 µM
GI50 [36]: > 100 µM
TGI [36]: > 100 µM
GI50 [37]: > 100 µM
TGI [37]: > 100 µM
GI50 [38]: > 100 µM
TGI [38]: > 100 µM
GI50 [39]: > 100 µM
TGI [39]: > 100 µM
GI50 [40]: > 100 µM
TGI [40]: > 100 µM
GI50 [41]: > 100 µM
TGI [41]: > 100 µM
GI50 [42]: > 100 µM
TGI [42]: > 100 µM
GI50 [43]: > 100 µM
TGI [43]: > 100 µM
GI50 [44]: > 100 µM
TGI [44]: > 100 µM
GI50 [45]: > 100 µM
TGI [45]: > 100 µM
GI50 [46]: > 100 µM
TGI [46]: > 100 µM
GI50 [47]: > 100 µM
TGI [47]: > 100 µM
GI50 [48]: > 100 µM
TGI [48]: > 100 µM
GI50 [49]: > 100 µM
TGI [49]: > 100 µM
GI50 [50]: > 100 µM
TGI [50]: > 100 µM
